In patent US20250320246A1, “3-AZASTEROID COMPOUNDS FOR THE TREATMENT OF DISEASES RELATED TO MITROCHONDRIAL FUNCTION” (NZP UK LIMITED, priority 2022, published 2025):

How the values were obtained:
[1] = system: mitochondrial respiratory chain complex I; test: Complex I assay in mouse whole brain homogenate after IV dosing; assay type: in vivo; settings: wild type mouse, 2 mg/kg IV
Procedure: Ex vivo mice brain was homogenated in a buffer of 250 mM sucrose, 20 mM HEPES, 3 mM EDTA, pH 7.5 at 4° C. Homogenisation was carried out using a Dounce homogenizer, for cortex samples, and by repetitive passage through a 0.5 mm syringe for isolated striatum. Samples were then incubated with 30 μl of detergent from the AbCam colorimetric Complex I assay kit on ice for 20 minutes. Samples are then centrifuged at 13,000 rpm for 30 mins. Triplicate samples per condition were blocked using the kit blocking buffer on the AbCam colorimetric Complex I assay kit plate for 3 hours. Samples are then washed using the kit wash buffer 3 times before the addition of the kit assay buffer containing NADH and colorimetric dye. The assay plate is read on a plate reader in a kinetic assay programme reading 450 nm in a 30 second interval for 50 minutes.
By 12 hours post injection complex I activity began to reduce again and was elevated by 98% above control. By 24 hours post injection, complex I activity was still elevated by 35% above control levels.

[2] = system: iNeurons from sPD patients; test: Neuronal morphology (elongation) in iNeurons from sPD patients; assay type: cell-based, human
Procedure: (§1) The fibroblasts lines and iNPC lines have previously been characterised and published in Carling et al, 2020.
(§2) Briefly, iNPCs are plated in a 6-well plate and cultured for 2 days in DMEM/F-12 medium with Glutamax™ supplemented with 1% NEAA, 2% B27 (Gibco) and 2.5 μM of DAPT. On day 3, DAPT is removed and the medium is supplemented with 1 μM smoothened agonist (SAG) and FGF8 (75 ng/ml) for additional 10 days. Neurons are replated at this stage. Subsequently SAG and FGF8 are withdrawn and replaced with BDNF (30 ng/ml), GDNF (30 ng/ml), TGF-b3 ([…]) and dcAMP (2 mM, Sigma) for 15 days, as previously described Schwartzentruber et al, 2020 and Carling et al, 2020. Dopaminergic neurons were treated with compounds at concentrations of 0.1 nM, 1 nM, 3 nM, 10 nM, 30 nM and 100 nM dosing every 3 days for the last 12 days of differentiation.
Cells are plated into 96 well plates and fixed using 4% paraformaldehyde for 30 minutes. After PBS washes cells are permeabilised using 0.1% Triton™ X-100 for 10 minutes and blocked using 5% goat serum for 1 hour. Cells are incubated with primary antibodies βIII tubulin (Millipore); activated caspase 3 (Cell Signaling); at 4° C. for 16 hours. Cells are washed using PBS-Tween® and incubated with Alexa Fluor™-conjugated secondary antibodies 488 and 568 (Invitrogen) and Hoescht (Sigma) 1 μM prior to imaging. Imaging was performed using the Opera Phenix™ high content imaging system (Perkin Elmer).
iNeurons were treated every 3 days for the last 12 days of the differentiation protocol. […] Mitochondrial reactive oxygen species generation was assessed using mitochondrial NpFR2 (probe; a kind gift from Dr Liz New, University of Sydney, Australia) at 20 μM and Hoechst stain solution at 1 μM for 30 mins at 37° C., then the dyes are removed and cells images using Opera Phenix™. Images generated from the live imaging experiments were analysed using Harmony® (Perkin Elmer software). […] We only analysed the z projection images collected from the z stacks.

[3] = system: sporadic PD patient fibroblasts; test: Mitochondrial membrane potential (MMP, TMRM) in sporadic PD patient fibroblasts; assay type: cell-based, human; settings: Homo sapiens, Fibroblast, 24 h, 3 sporadic PD patient fibroblasts
[4] = system: iNeurons from sPD patients; test: Mitochondrial reactive oxygen species (ROS) in iNeurons from sPD patients; assay type: cell-based, human; settings: sPD patient iNeurons treated; untreated sPD patients 115
Procedure: as §1, §2
iNeurons were treated every 3 days for the last 12 days of the differentiation protocol. Cells are plated in 96 well plates; for live imaging cells are incubated for one hour at 37° C. with 80 nM tetramethlyrhodamine (TMRM), 1 μM LysoTracker® Green (Invitrogen) and Hoechst Stain solution (Sigma) at 1 μM before imaging using Opera Phenix™. Cellular ATP measurements are undertaken using ATPlite kit (Perkin Elmer) as per manufacturer's instructions. Mitochondrial reactive oxygen species generation was assessed using mitochondrial NpFR2 (probe; a kind gift from Dr Liz New, University of Sydney, Australia) at 20 μM and Hoechst stain solution at 1 μM for 30 mins at 37° C., then the dyes are removed and cells images using Opera Phenix™. Images generated from the live imaging experiments were analysed using Harmony® (Perkin Elmer software). We developed protocols in order to segment nucleus, cell boundary and processes, mitochondria, lysosomes, autophagosomes. We only analysed the z projection images collected from the z stacks.

Question: For `C[C@H](CCCC(=O)O)[C@H]1CC[C@H]2[C@@H]3[C@@H](O)C[C@@H]4CNCC[C@]4(C)[C@H]3CC[C@]12C.Cl` [Compound 28b, 3-Aza-7β-hydroxy-25-homo-5β-cholan-25-oic acid hydrochloride], which “complex I activity” value ([1]; 4 and 8 hours post injection) is on record?
Answer: Its value is “remained elevated to a similar extent”.

Question: What about the “complex I activity increase” value ([1]; 1 hour after dosing) of the same compound?
Answer: The value was 125%.

Question: And the “complex I activity elevated above control” value ([1]; 12 hours post injection)?
Answer: The value was 98%.

Question: What about the “complex I activity elevated above control levels” value ([1]; 24 hours post injection) of the same compound?
Answer: Its value is 35%.

Question: What about the “neuronal morphology, in words” value ([2]; sPD derived dopaminergic neurons) of the same compound?
Answer: Its value is “improving neuronal morphology”.

Question: And the “Neuronal morphology (elongation; % controls)” value ([2]; sPD patient iNeurons treated, untreated sPD patients 48)?
Answer: The value was 68 % controls.

Question: And the EC50 ([3]; 8-point range 0.06 nM-300 nM)?
Answer: Its EC50 is 4.03 nM.

Question: And the Emax ([3]; max response with highest dose of compound (300 nM), read-out: MMP % of vehicle, top %)?
Answer: The Emax was 101%.

Question: And the activity at 60 pM ([3]; max response with lowest dose of compound (0.06 nM), read-out: MMP % of vehicle, bottom %)?
Answer: Its activity at 60 pM is 92.8%.

Question: And the “ROS normalisation (% of controls)” value [4]?
Answer: Its value is 109 % of controls.
